Experimental data: PubChem BioAssay AID1259408 (Genetic Toxicology Data Bank (GENE-TOX), 2018)
Activity calls are given as the source filed them. The rule behind the calls is not given here.

Tested on: GENE-TOX genotoxicity assays, various organisms and cells
Assay: GENE-TOX mutagenicity studies
Conditions: for call: Assay Type: In vivo carcinogenicity studies
Description: GENE-TOX provides genetic toxicology (mutagenicity) test data from expert peer review of open scientific literature for more than 3,000 chemicals from the United States Environmental Protection Agency (EPA). GENE-TOX was established to select assay systems for evaluation, review data in the scientific literature, and recommend proper testing protocols and evaluation procedures for these systems.
GENE-TOX covers the years 1991 - 1998. It is no longer updated.
This is an archive assay for GENE-TOX mutagenicity studies.

[1] = Species/Cell Type: Chinese hamster lung (V79) cells, Assay Type: Forward gene mutation at the HPRT or ouabain locus, Assay Code: V79+, Evaluation Type: Evaluation A (Pre-1980)
[2] = Species/Cell Type: Nonhuman, Assay Code: CCG+L, Evaluation Type: Evaluation A (Pre-1980)
[3] = Species/Cell Type: Salmonella typhimurium (one or more of the five standard strains: TA98, TA100, TA1535, TA1537, and TA1538), Assay Type: Histidine reverse gene mutation, Ames assay, Assay Code: SAL+*, Activation: With metabolic activation, Evaluation Type: Evaluation A (Pre-1980)
[4] = Species/Cell Type: Chinese hamster ovary (CHO) cells, Assay Type: Forward gene mutation at the HPRT locus, Assay Code: CHO+, Evaluation Type: Evaluation B (Post-1980)
[5] = Species/Cell Type: Human, Assay Type: Sister-chromatid exchange (SCE) in vitro, Assay Code: SC1+D, Dose Response: With dose response, Evaluation Type: Evaluation B (Post-1980)
[6] = Species/Cell Type: Nonhuman, Assay Type: Sister-chromatid exchange (SCE) in vitro, Assay Code: SC2+D, Dose Response: With dose response, Evaluation Type: Evaluation B (Post-1980)
[7] = Species/Cell Type: Saccharomyces cerevisiae, Assay Type: Mitotic recombination or gene conversion, Assay Code: YEC+, Evaluation Type: Evaluation A (Pre-1980)
[8] = Species/Cell Type: Drosophila melanogaster, Assay Type: Sex-linked recessive lethal gene mutation, Assay Code: SRLT, Evaluation Type: Evaluation A (Pre-1980)
[9] = Species/Cell Type: Salmonella typhimurium (one or more of the five standard strains: TA98, TA100, TA1535, TA1537, and TA1538), Assay Type: Histidine reverse gene mutation, Ames assay, Assay Code: SALT, Evaluation Type: Evaluation A (Pre-1980)

Cc1ccc2cc3c(ccc4ccccc43)c3c2c1CC3O (centres undefined) was tested, and the mutagenic call [1] was “active; positive”, the call [2] was “active; positive” and the mutagenic call [3] was “active; positive”.

Cc1c(N)nc([C@H](CC(N)=O)NC[C@H](N)C(N)=O)nc1C(=O)N[C@H](C(=O)N[C@H](C)[C@@H](O)[C@H](C)C(=O)N[C@H](C(=O)NCCc1nc(-c2nc(C(=O)NCCC[S+](C)C)cs2)cs1)[C@@H](C)O)[C@@H](OC1OC(CO)C(O)C(O)C1OC1OC(CO)C(O)C(OC(N)=O)C1O)c1cnc[nH]1 (some centres undefined) was tested, and the mutagenic call [4] was “active; positive”, the mutagenic call (Species/Cell Type: Human bone marrow, Assay Type: Chromosome aberrations in vivo, Assay Code: CY5+, Evaluation Type: Evaluation A (Pre-1980)) was “active; positive” and the mutagenic call (Species/Cell Type: Human cell culture, Assay Type: Chromosome aberrations in vitro, Assay Code: CYZ+, Evaluation Type: Evaluation A (Pre-1980)) was “active; positive”. For the same compound, the mutagenic call (Species/Cell Type: Human lymphocytes or leukocytes, Assay Type: Chromosome aberrations in vitro, Assay Code: CY7+D, Dose Response: With dose response, Evaluation Type: Evaluation A (Pre-1980)) was “active; positive”, the mutagenic call (Species/Cell Type: Human lymphocytes, Assay Type: Micronucleus test in vitro, chromosome aberrations, Assay Code: MN7+, Evaluation Type: Evaluation A (Pre-1980)) was “active; positive” and the mutagenic call (Species/Cell Type: Human lymphocytes, Assay Type: Sister-chromatid exchange (SCE) in vitro, Assay Code: SCL+, Evaluation Type: Evaluation B (Post-1980)) was “active; positive”. For the same compound, the mutagenic call (Species/Cell Type: Human lymphocytes, Assay Type: Sister-chromatid exchange (SCE) in vitro, Assay Code: SCL-, Evaluation Type: Evaluation A (Pre-1980)) was “inactive; negative”, the mutagenic call [5] was “active; positive” and the mutagenic call (Species/Cell Type: Human, Assay Type: Sister-chromatid exchange (SCE) in vitro, Assay Code: SC1-, Evaluation Type: Evaluation A (Pre-1980)) was “inactive; negative”. For the same compound, the mutagenic call (Species/Cell Type: Mammalian polychromatic erythrocytes, Assay Type: Micronucleus test, chromosome aberrations, Assay Code: MNT+, Evaluation Type: Evaluation B (Post-1980)) was “active; positive”, the mutagenic call (Species/Cell Type: Mammalian polychromatic erythrocytes, Assay Type: Micronucleus test, chromosome aberrations, Assay Code: MNTT, Evaluation Type: Evaluation A (Pre-1980)) was “no conclusion” and the mutagenic call (Species/Cell Type: Mouse (C3H/10T1/2) cells, Assay Type: Cell transformation, Assay Code: CTH+, Evaluation Type: Evaluation A (Pre-1980)) was “active; positive”. The mutagenic call (Species/Cell Type: Nonhuman, Assay Type: Chromosome aberrations in vitro, Assay Code: CY&+, Evaluation Type: Evaluation A (Pre-1980)) was “active; positive”, the call (Species/Cell Type: Nonhuman, Assay Code: CCGT, Evaluation Type: Evaluation A (Pre-1980)) was “no conclusion” and the mutagenic call (Species/Cell Type: Nonhuman, Assay Type: Sister-chromatid exchange (SCE) in vitro, Assay Code: SC2+D, Dose Response: With dose response, Evaluation Type: Evaluation A (Pre-1980)) was “active; positive”. The mutagenic call [6] was “active; positive”, the mutagenic call (Species/Cell Type: Nonhuman, Assay Type: Sister-chromatid exchange (SCE) in vivo, Assay Code: SC3+D, Dose Response: With dose response, Evaluation Type: Evaluation B (Post-1980)) was “active; positive” and the mutagenic call (Species/Cell Type: Saccharomyces cerevisiae, Assay Type: Forward gene mutation, Assay Code: YEF+, Evaluation Type: Evaluation A (Pre-1980)) was “active; positive”. For the same compound, the mutagenic call [7] was “active; positive”, the mutagenic call (Species/Cell Type: Saccharomyces cerevisiae, Assay Type: Mitotic recombination or gene conversion, Assay Code: YEH+, Evaluation Type: Evaluation A (Pre-1980)) was “active; positive” and the mutagenic call (Species/Cell Type: Saccharomyces cerevisiae, Assay Type: Reverse gene mutation, Assay Code: YER+, Evaluation Type: Evaluation A (Pre-1980)) was “active; positive”. For the same compound, the mutagenic call (Species/Cell Type: Vicia faba, Assay Type: Chromosome aberrations, Assay Code: VIC+, Evaluation Type: Evaluation A (Pre-1980)) was “active; positive”.

With CC(=O)OC1C2OC2C2=CC(O)C3(CC2(C)C1C)OC3(C)CO (centres undefined) the mutagenic call (Species/Cell Type: Saccharomyces cerevisiae, Assay Type: Mitotic recombination or gene conversion, Assay Code: YEC-, Evaluation Type: Evaluation A (Pre-1980)) was “inactive; negative”.

For CN(C)N=Nc1cccc(O)c1, the mutagenic call [8] was “no conclusion” and the mutagenic call [7] was “active; positive”.

For N#Cc1cc(I)c(O)c([N+](=O)[O-])c1, the mutagenic call (Species/Cell Type: Mammalian polychromatic erythrocytes, Assay Type: Micronucleus test, chromosome aberrations, Assay Code: MNTT, Evaluation Type: Evaluation B (Post-1980)) was “no conclusion”.

In the case of c1cc2ccc3ccc4c5c(c6c(c1CCC6)c2c35)CCC4, the mutagenic call [9] is reported as “no conclusion”.

With OCSc1ncc[nH]1 the mutagenic call (Species/Cell Type: Arabidopsis species, Assay Type: Gene mutation, Assay Code: ARM-, Evaluation Type: Evaluation A (Pre-1980)) was “inactive; negative”.

For CC1=C(/C=C/C(C)=C/C=C/C(C)=C/COc2ccccc2)C(C)(C)CCC1, the mutagenic call [5] was “active; positive”.

With Cc1ccc2ccc3c4c(ccc3c2c1)C(=O)CC4 the mutagenic call [9] was “no conclusion”.

With Cc1cc2nc3ccc(N(C)C)cc3nc2cc1N the mutagenic call [8] was “no conclusion”, the mutagenic call (Species/Cell Type: Escherichia coli polA (W3119 vs P3478), Assay Type: Rec-assay, DNA effects (bacterial DNA repair), Assay Code: RE1T, Evaluation Type: Evaluation A (Pre-1980)) was “no conclusion” and the mutagenic call (Species/Cell Type: Neurospora crassa, Assay Type: Aneuploidy, chromosome aberrations, Assay Code: NEN-, Evaluation Type: Evaluation A (Pre-1980)) was “inactive; negative”. The mutagenic call [3] was “active; positive”.

For CCN(CCCl)CCCNc1c2ccc(Cl)cc2nc2ccc(OC)nc12, the mutagenic call [4] was “active; positive”.

With c1ccc2c(c1)-c1cc3ccccc3cc1[C@H]1O[C@@H]21 the mutagenic call [1] was “active; positive”, the mutagenic call (Species/Cell Type: Drosophila melanogaster, Assay Type: Sex-linked recessive lethal gene mutation, Assay Code: SRL+, Evaluation Type: Evaluation A (Pre-1980)) was “active; positive” and the mutagenic call (Species/Cell Type: Human diploid fibroblasts, Assay Type: Unscheduled DNA synthesis (UDS) in vitro, DNA effects, Assay Code: UDH+D, Dose Response: With dose response, Evaluation Type: Evaluation A (Pre-1980)) was “active; positive”. The mutagenic call (Species/Cell Type: Mouse prostate cells, Assay Type: Cell transformation, Assay Code: CTM+, Evaluation Type: Evaluation A (Pre-1980)) was “active; positive”, the call [2] was “active; positive” and the mutagenic call (Species/Cell Type: Nonhuman, Assay Type: Sister-chromatid exchange (SCE) in vitro, Assay Code: SC2+, Evaluation Type: Evaluation B (Post-1980)) was “active; positive”. For the same compound, the mutagenic call (Species/Cell Type: Salmonella typhimurium (one or more of the five standard strains: TA98, TA100, TA1535, TA1537, and TA1538), Assay Type: Histidine reverse gene mutation, Ames assay, Assay Code: SAL+, Evaluation Type: Evaluation A (Pre-1980)) was “active; positive” and the mutagenic call (Species/Cell Type: Syrian hamster embryo (SHE) cells, Assay Type: Cell transformation, clonal assay, Assay Code: CTC+, Evaluation Type: Evaluation A (Pre-1980)) was “active; positive”.

With C#C[C@]1(OC(C)=O)CC[C@H]2[C@@H]3CCC4=CC(=O)CC[C@@H]4[C@H]3CC[C@@]21C (tested in a mixture with another compound) the mutagenic call (Species/Cell Type: Rodents, Sex: Male, Assay Type: Dominant lethal test, Assay Code: DLT-, Evaluation Type: Evaluation A (Pre-1980)) was “inactive; negative”.

In the case of S=C(S)NCCNC(=S)S, the mutagenic call (Species/Cell Type: Allium cepa, Assay Type: Chromosome aberrations, Assay Code: ALC+D, Dose Response: With dose response, Evaluation Type: Evaluation A (Pre-1980)) is reported as “active; positive”.

In the case of COc1cccc2c1C(=O)c1c(O)c3c(c(O)c1C2=O)C[C@@](O)(C(C)=O)C[C@@H]3O[C@@H]1C[C@@H](N(C)C)[C@@H](O)[C@@H](C)O1, the mutagenic call [9] is reported as “no conclusion”.

COc1ccc2c3c4n(c2c1)[C@@H](C=C(C)C)OOC(C)(C)C[C@@H]4N1C(=O)[C@@H]2CCCN2C(=O)[C@]1(O)[C@H]3O was tested, and the mutagenic call (Species/Cell Type: Saccharomyces cerevisiae, Assay Type: Mitotic recombination or gene conversion, Assay Code: YEH-, Evaluation Type: Evaluation A (Pre-1980)) was “inactive; negative” and the mutagenic call [9] was “no conclusion”.

Nc1cccc2c1C(=O)c1c(NCCNCCO)ccc(NCCNCCO)c1C2=O was tested, and the mutagenic call [6] was “active; positive”.

With COC(=O)NC(=S)Nc1ccccc1N the mutagenic call (Species/Cell Type: Aspergillus nidulans, Assay Type: Aneuploidy, chromosome aberrations, Assay Code: ASN+, Evaluation Type: Evaluation A (Pre-1980)) was “active; positive” and the mutagenic call (Species/Cell Type: Aspergillus nidulans, Assay Type: Mitotic recombination, Assay Code: ASG-, Evaluation Type: Evaluation A (Pre-1980)) was “inactive; negative”.
